Measurements published in the NIST ThermoML archive (doi:10.1007/s10765-006-0100-z).

Columns and labels:
[1] = xn = mol fraction of the nth substance listed; settings: 101 kPa, Liquid; for mass density: Vibrating tube method
[2] = 101 kPa, Liquid; for mass density: Vibrating tube method

C1CCOCC1 [tetrahydropyran] + CCC(C)Cl
[1], x1 = 1
Settings	kinematic viscosity [m2/s]	mass density [kg/m3]
298.15 K	9.1e-07	878.81
313.15 K	7.57e-07	863.67

C1CCOCC1 [tetrahydropyran] + CC(C)(C)Cl
[1], x1 = 1
Settings	kinematic viscosity [m2/s]	mass density [kg/m3]
298.15 K	9.1e-07	878.81
313.15 K	7.57e-07	863.67

CCC(C)Cl (configuration not stated) [2-chlorobutane] + C1CCOCC1
[1]
Settings	kinematic viscosity, 298.15 K [m2/s]	kinematic viscosity, 313.15 K [m2/s]	mass density, 298.15 K [kg/m3]	mass density, 313.15 K [kg/m3]
x2 = 0	4.54e-07	3.96e-07	867.37	850.13
x2 = 0.0525	–	–	868.05	–
x2 = 0.0605	4.66e-07	4.09e-07	–	851.11
x2 = 0.1035	–	–	869.06	–
x2 = 0.1166	4.8e-07	4.22e-07	–	852.02
x2 = 0.1947	–	–	870.26	–
x2 = 0.2131	5.08e-07	4.45e-07	–	853.59
x2 = 0.3042	–	–	871.8	–
x2 = 0.3174	5.42e-07	4.72e-07	–	855.4
x2 = 0.4088	5.75e-07	4.97e-07	–	857
x2 = 0.4091	–	–	872.95	–
x2 = 0.4994	6.11e-07	5.25e-07	–	858.35
x2 = 0.5025	–	–	874.28	–
x2 = 0.5947	–	–	875.42	–
x2 = 0.6122	6.62e-07	5.66e-07	–	859.58
x2 = 0.7108	7.14e-07	6.06e-07	–	861.03
x2 = 0.7116	–	–	876.72	–
x2 = 0.8059	7.69e-07	6.49e-07	–	862.1
x2 = 0.809	–	–	877.46	–
x2 = 0.8917	–	–	878.36	–
x2 = 0.9023	8.34e-07	6.97e-07	–	862.9
x2 = 0.9549	8.73e-07	7.28e-07	–	863.45
x2 = 0.9599	–	–	878.55	–

C1CCOCC1 [tetrahydropyran]
[2]
Settings	kinematic viscosity [m2/s]	mass density [kg/m3]
298.15 K	9.1e-07	878.81
313.15 K	7.57e-07	863.67

C1CCOCC1 [tetrahydropyran] + CCCCCl
[1], x1 = 1
Settings	kinematic viscosity [m2/s]	mass density [kg/m3]
298.15 K	9.1e-07	878.81
313.15 K	7.57e-07	863.67

CC(C)CCl [1-chloro-2-methylpropane] + C1CCOCC1
[1]
Settings	kinematic viscosity [m2/s]	mass density [kg/m3]
298.15 K, x2 = 0	4.93e-07	871.13
298.15 K, x2 = 0.048	–	871.69
298.15 K, x2 = 0.054	5.06e-07	–
298.15 K, x2 = 0.1069	5.19e-07	–
298.15 K, x2 = 0.1084	–	872.39
298.15 K, x2 = 0.2033	5.46e-07	–
298.15 K, x2 = 0.212	–	873.53
298.15 K, x2 = 0.29	–	874.38
298.15 K, x2 = 0.311	5.78e-07	–
298.15 K, x2 = 0.3951	–	875.37
298.15 K, x2 = 0.4126	6.11e-07	–
298.15 K, x2 = 0.504	6.45e-07	–
298.15 K, x2 = 0.5062	–	876.3
298.15 K, x2 = 0.595	6.82e-07	–
298.15 K, x2 = 0.6273	–	877.23
298.15 K, x2 = 0.6897	–	877.63
298.15 K, x2 = 0.6954	7.27e-07	–
298.15 K, x2 = 0.8028	7.83e-07	–
298.15 K, x2 = 0.8111	–	878.26
298.15 K, x2 = 0.9066	8.46e-07	–
298.15 K, x2 = 0.9088	–	878.68
298.15 K, x2 = 0.952	–	878.79
298.15 K, x2 = 0.9578	8.8e-07	–
313.15 K, x2 = 0	4.29e-07	853.51
313.15 K, x2 = 0.0432	–	854.17
313.15 K, x2 = 0.054	4.4e-07	–
313.15 K, x2 = 0.0934	–	854.93
313.15 K, x2 = 0.1069	4.51e-07	–
313.15 K, x2 = 0.1923	–	856.35
313.15 K, x2 = 0.2033	4.72e-07	–
313.15 K, x2 = 0.3025	–	857.83
313.15 K, x2 = 0.311	4.97e-07	–
313.15 K, x2 = 0.406	–	859.08
313.15 K, x2 = 0.4126	5.23e-07	–
313.15 K, x2 = 0.5018	–	860.14
313.15 K, x2 = 0.504	5.5e-07	–
313.15 K, x2 = 0.595	5.8e-07	–
313.15 K, x2 = 0.6079	–	861.19
313.15 K, x2 = 0.6954	6.16e-07	–
313.15 K, x2 = 0.7238	–	862.24
313.15 K, x2 = 0.7895	–	862.78
313.15 K, x2 = 0.8028	6.6e-07	–
313.15 K, x2 = 0.8874	–	863.42
313.15 K, x2 = 0.9066	7.07e-07	–
313.15 K, x2 = 0.9463	–	863.68
313.15 K, x2 = 0.9578	7.33e-07	–
